Values of other authors as cited in US20080254143A1, “COMPOSITION FOR IMPROVING IMMUNE SYSTEM HEALTH” (priority 2007, published 2008).

Key:
common cold [1] = conditions: administered or recruited within 24 hrs of the onset of symptoms
common cold [2] = conditions: daily supplementation, amounts greater than 100 mg
rhinovirus = conditions: prevents formation of viral capsid proteins
TNF-α = conditions: activated macrophages (LPS/IFN-gamma-activated RAW 264.7)

## CC(=O)[O-].CC(=O)[O-].[Zn+2] [Zinc acetate]
Common cold [1]
  duration and severity of symptoms of a common cold: reduce the duration and overall severity

## O=S(=O)([O-])[O-].[Zn+2] [Zinc sulphate]
Common cold [1]
  duration and severity of symptoms of a common cold: reduce the duration and overall severity

## O=C1O[C@H]([C@@H](O)CO)C(O)=C1O [ascorbic acid, L-ascorbic acid]
Common cold [2]
  incidence, severity and integrated morbidity of the common cold: lowers the incidence, severity and integrated morbidity

## [Zn] [zinc, Zinc]
Common cold [1]
  duration and severity of symptoms of a common cold: reducing the duration and severity
rhinovirus
  in vitro replication of the rhinovirus: inhibits in vitro replication

## Anthocyanins
TNF-α
  TNF-α production: induce TNF-α production
